According to patent US20240270762A1, “PENICILLIN-BINDING PROTEIN INHIBITORS” (priority 2021, published 2024):
≈ marks a conversion by molar mass, not a printed value.

Assays:
N. gonorrhoeae MS11 = assay: Liquid broth MIC in Fastidious broth; conditions: Neisseria gonorrhoeae, MS11, read-out: Minimum Inhibitory Concentration (MIC), N. gonorrhoeae MS11
N. gonorrhoeae WHO Z = assay: Liquid broth MIC in Fastidious broth; conditions: Neisseria gonorrhoeae, read-out: Minimum Inhibitory Concentration (MIC), N. gonorrhoeae WHO Z
K. pneumoniae UMM = assay: microbe, parasite or virus in culture; assay type: cell-based; conditions: Klebsiella pneumoniae, read-out: MIC K. pneumoniae UMM
N. gonorrhoeae WHO X = assay: Liquid broth MIC in Fastidious broth; conditions: Neisseria gonorrhoeae, read-out: Minimum Inhibitory Concentration (MIC), N. gonorrhoeae WHO X
N. gonorrhoeae WHO M = assay: Liquid broth MIC in Fastidious broth; conditions: Neisseria gonorrhoeae, read-out: Minimum Inhibitory Concentration (MIC), N. gonorrhoeae WHO M
K. pneumoniae 848844 = assay: microbe, parasite or virus in culture; assay type: cell-based; conditions: Klebsiella pneumoniae, 848844, read-out: MIC K. pneumoniae 848844
N. gonorrhoeae WHO K = assay: Liquid broth MIC in Fastidious broth; conditions: Neisseria gonorrhoeae, read-out: Minimum Inhibitory Concentration (MIC), N. gonorrhoeae WHO K
E. coli AG100 = assay: microbe, parasite or virus in culture; assay type: cell-based; conditions: Escherichia coli, AG100, read-out: MIC E. coli AG100
N. gonorrhoeae FA1090 = assay: Liquid broth MIC in Fastidious broth; conditions: Neisseria gonorrhoeae, FA1090, read-out: Minimum Inhibitory Concentration (MIC), N. gonorrhoeae FA 1090
E. coli D22 = assay: microbe, parasite or virus in culture; assay type: cell-based; conditions: Escherichia coli, D22, read-out: MIC E. coli D22
E. coli ATCC 25922 = assay: microbe, parasite or virus in culture; assay type: cell-based; conditions: Escherichia coli, ATCC25922, read-out: MIC E. coli 25922
K. pneumoniae SI-117 = assay: microbe, parasite or virus in culture; assay type: cell-based; conditions: Klebsiella pneumoniae, SI117, read-out: MIC K. pneumoniae SI-117
P. aeruginosa ATCC 27853 = assay: microbe, parasite or virus in culture; assay type: cell-based; conditions: Pseudomonas aeruginosa, ATCC27853, read-out: MIC P. aeruginosa ATCC 27853
A. baumannii ATCC 19606 = assay: microbe, parasite or virus in culture; assay type: cell-based; conditions: Acinetobacter baumannii, ATCC19606, read-out: MIC, A. baumannii ATCC 19606
[1] = test system: P. aeruginosa (ΔmexAB-oprM); assay: Broth microdilution MIC in CAMHB; assay type: cell-based; conditions: Pseudomonas aeruginosa; read-out: MIC P. aeruginosa ΔmexAB-oprM
[2] = molecular target: T1, PBP2 from Neisseria gonorrhoeae (FA19) (Neisseria gonorrhoeae, UniProt P08149); assay: Bocillin-FL fluorescence polarization competition binding, N. gonorrhoeae PBP2; conditions: fluorescence polarization competition binding assay using Bocillin-FL, read-out: N. gonorrhoeae PBP2 Potency
T1 construct: made in house
T1 sequence (P08149 whole entry): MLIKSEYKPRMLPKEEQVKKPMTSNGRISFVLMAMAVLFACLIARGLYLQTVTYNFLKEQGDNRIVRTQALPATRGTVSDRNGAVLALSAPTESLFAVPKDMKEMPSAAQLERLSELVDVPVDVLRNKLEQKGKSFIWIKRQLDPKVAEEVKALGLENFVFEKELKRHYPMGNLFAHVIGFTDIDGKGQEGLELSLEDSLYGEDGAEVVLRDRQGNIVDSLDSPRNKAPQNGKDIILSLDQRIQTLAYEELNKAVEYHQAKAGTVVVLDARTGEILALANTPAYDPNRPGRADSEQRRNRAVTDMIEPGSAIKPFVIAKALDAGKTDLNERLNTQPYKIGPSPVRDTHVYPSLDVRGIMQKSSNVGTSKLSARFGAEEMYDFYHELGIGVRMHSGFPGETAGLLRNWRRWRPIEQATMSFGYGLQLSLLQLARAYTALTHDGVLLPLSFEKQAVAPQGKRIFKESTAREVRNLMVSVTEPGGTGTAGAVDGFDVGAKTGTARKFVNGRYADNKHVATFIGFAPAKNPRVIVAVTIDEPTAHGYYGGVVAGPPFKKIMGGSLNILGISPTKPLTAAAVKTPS
In short: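 Fluorescence polarization competition with 0.1 μM Bocillin-FL (fluorescent penicillin V) against 0.25 μM N. gonorrhoeae FA19 PBP2 in 50 mM Hepes pH 8.0, 300 mM NaCl, 10% glycerol. Boronic acid inhibitors were preincubated with PBP, then Bocillin-FL was added and FP read (490/520 nm) up to 60 min. EC50 is the concentration halving PBP-bound Bocillin-FL.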

P. aeruginosa ATCC 35151 = assay: microbe, parasite or virus in culture; assay type: cell-based; conditions: Pseudomonas aeruginosa, ATCC35151, read-out: MIC P. aeruginosa ATCC 35151
E. coli 901C = assay: microbe, parasite or virus in culture; assay type: cell-based; conditions: Escherichia coli, read-out: MIC E. coli 901C

## O=C(O)c1cccc2c1OB(O)[C@@H](NC(=O)C(NC(=O)C1CCCCC1)c1ccc(P(=O)(O)O)cc1)C2 (stereo partly drawn) [Example 31, (3R)-3-(2-(cyclohexanecarboxamido)-2-(4-phosphonophenyl)acetamido)-2-hydroxy-3,4-dihydro-2H-benzo[e][1,2]oxaborinine-8-carboxylic acid]
N. gonorrhoeae MS11
  MIC: 16 to 32 µg/mL (≈ 30.2 to 60.3 µM)
N. gonorrhoeae WHO Z
  MIC: 16 to 32 µg/mL (≈ 30.2 to 60.3 µM)
K. pneumoniae UMM
  MIC: > 128 µg/mL
N. gonorrhoeae WHO X
  MIC: 16 to 32 µg/mL (≈ 30.2 to 60.3 µM)
N. gonorrhoeae WHO M
  MIC: 4 to 8 µg/mL (≈ 7.54 to 15.1 µM)
K. pneumoniae 848844
  MIC: > 128 µg/mL
N. gonorrhoeae WHO K
  MIC: 16 to 32 µg/mL (≈ 30.2 to 60.3 µM)
E. coli AG100
  MIC: > 128 µg/mL
N. gonorrhoeae FA1090
  MIC: 4 to 8 µg/mL (≈ 7.54 to 15.1 µM)
E. coli D22
  MIC: 32 to 64 µg/mL (≈ 60.3 to 121 µM)
E. coli ATCC 25922
  MIC: > 128 µg/mL
K. pneumoniae SI-117
  MIC: > 128 µg/mL
P. aeruginosa ATCC 27853
  MIC: > 128 µg/mL
A. baumannii ATCC 19606
  MIC: > 128 µg/mL
[1]
  MIC: > 128 µg/mL
[2]
  EC50: < 10 µM
P. aeruginosa ATCC 35151
  MIC: 2 to 4 µg/mL (≈ 3.77 to 7.54 µM)
E. coli 901C
  MIC: 32 to 64 µg/mL (≈ 60.3 to 121 µM)

## N#Cc1cccc(C(=O)N[C@@H](C(=O)N[C@H]2Cc3cccc(C(=O)O)c3OB2O)c2ccc(P(=O)(O)O)cc2)n1 [Example 180, (R)-3-((R)-2-(6-cyanopicolinamido)-2-(4-phosphonophenyl)acetamido)-2-hydroxy-3,4-dihydro-2H-benzo[e][1,2]oxaborinine-8-carboxylic acid]
N. gonorrhoeae MS11
  MIC: 1 to 2 µg/mL (≈ 1.82 to 3.63 µM)
N. gonorrhoeae WHO Z
  MIC: < 1 µg/mL
K. pneumoniae UMM
  MIC: > 128 µg/mL
N. gonorrhoeae WHO X
  MIC: 4 to 8 µg/mL (≈ 7.27 to 14.5 µM)
N. gonorrhoeae WHO M
  MIC: < 1 µg/mL
K. pneumoniae 848844
  MIC: > 128 µg/mL
N. gonorrhoeae WHO K
  MIC: 1 to 2 µg/mL (≈ 1.82 to 3.63 µM)
E. coli AG100
  MIC: > 128 µg/mL
N. gonorrhoeae FA1090
  MIC: < 1 µg/mL
E. coli D22
  MIC: 2 to 4 µg/mL (≈ 3.63 to 7.27 µM)
E. coli ATCC 25922
  MIC: > 128 µg/mL
K. pneumoniae SI-117
  MIC: > 128 µg/mL
P. aeruginosa ATCC 27853
  MIC: > 128 µg/mL
A. baumannii ATCC 19606
  MIC: > 128 µg/mL
[1]
  MIC: 32 to 64 µg/mL (≈ 58.2 to 116 µM)
[2]
  EC50: < 10 µM
P. aeruginosa ATCC 35151
  MIC: 2 to 4 µg/mL (≈ 3.63 to 7.27 µM)
E. coli 901C
  MIC: < 1 µg/mL

## O=C(NC(C(=O)N[C@H]1Cc2cccc(C(=O)O)c2OB1O)c1ccc(P(=O)(O)O)cc1)c1ccccn1 (stereo partly drawn) [Example 32, (3R)-2-hydroxy-3-(2-(4-phosphonophenyl)-2-(picolinamido)acetamido)-3,4-dihydro-2H-benzo[e][1,2]oxaborinine-8-carboxylic acid]
N. gonorrhoeae MS11
  MIC: 1 to 2 µg/mL (≈ 1.9 to 3.81 µM)
N. gonorrhoeae WHO Z
  MIC: 1 to 2 µg/mL (≈ 1.9 to 3.81 µM)
K. pneumoniae UMM
  MIC: > 128 µg/mL
N. gonorrhoeae WHO X
  MIC: 16 to 32 µg/mL (≈ 30.5 to 60.9 µM)
N. gonorrhoeae WHO M
  MIC: < 1 µg/mL
K. pneumoniae 848844
  MIC: > 128 µg/mL
N. gonorrhoeae WHO K
  MIC: 4 to 8 µg/mL (≈ 7.62 to 15.2 µM)
E. coli AG100
  MIC: > 128 µg/mL
N. gonorrhoeae FA1090
  MIC: < 1 µg/mL
E. coli D22
  MIC: 8 to 16 µg/mL (≈ 15.2 to 30.5 µM)
E. coli ATCC 25922
  MIC: > 128 µg/mL
K. pneumoniae SI-117
  MIC: > 128 µg/mL
P. aeruginosa ATCC 27853
  MIC: > 128 µg/mL
A. baumannii ATCC 19606
  MIC: > 128 µg/mL
[1]
  MIC: 32 to 64 µg/mL (≈ 60.9 to 122 µM)
[2]
  EC50: < 10 µM
P. aeruginosa ATCC 35151
  MIC: 2 to 4 µg/mL (≈ 3.81 to 7.62 µM)
E. coli 901C
  MIC: 2 to 4 µg/mL (≈ 3.81 to 7.62 µM)

## CC(C)(C)C(=O)NC(C(=O)N[C@H]1Cc2cccc(C(=O)O)c2OB1O)c1ccc(P(=O)(O)O)cc1 (stereo partly drawn) [Example 29, (3R)-2-hydroxy-3-(2-(4-phosphonophenyl)-2-pivalamidoacetamido)-3,4-dihydro-2H-benzo[e][1,2]oxaborinine-8-carboxylic acid]
N. gonorrhoeae MS11
  MIC: 16 to 32 µg/mL (≈ 31.7 to 63.5 µM)
N. gonorrhoeae WHO Z
  MIC: 16 to 32 µg/mL (≈ 31.7 to 63.5 µM)
K. pneumoniae UMM
  MIC: 32 to 64 µg/mL (≈ 63.5 to 127 µM)
N. gonorrhoeae WHO X
  MIC: 16 to 32 µg/mL (≈ 31.7 to 63.5 µM)
N. gonorrhoeae WHO M
  MIC: 4 to 8 µg/mL (≈ 7.93 to 15.9 µM)
K. pneumoniae 848844
  MIC: > 128 µg/mL
N. gonorrhoeae WHO K
  MIC: 16 to 32 µg/mL (≈ 31.7 to 63.5 µM)
E. coli AG100
  MIC: > 128 µg/mL
N. gonorrhoeae FA1090
  MIC: 4 to 8 µg/mL (≈ 7.93 to 15.9 µM)
E. coli D22
  MIC: 8 to 16 µg/mL (≈ 15.9 to 31.7 µM)
E. coli ATCC 25922
  MIC: > 128 µg/mL
K. pneumoniae SI-117
  MIC: > 128 µg/mL
P. aeruginosa ATCC 27853
  MIC: 32 to 64 µg/mL (≈ 63.5 to 127 µM)
A. baumannii ATCC 19606
  MIC: 32 to 64 µg/mL (≈ 63.5 to 127 µM)
[1]
  MIC: 8 to 16 µg/mL (≈ 15.9 to 31.7 µM)
[2]
  EC50: < 10 µM
P. aeruginosa ATCC 35151
  MIC: 2 to 4 µg/mL (≈ 3.97 to 7.93 µM)
E. coli 901C
  MIC: 8 to 16 µg/mL (≈ 15.9 to 31.7 µM)

## CCN1CCN(C(=O)NC(C(=O)N[C@H]2Cc3cccc(C(=O)O)c3OB2O)c2cccc(CP(=O)(O)O)c2)C(=O)C1=O (stereo partly drawn) [Example 22, (3R)-3-(2-(4-ethyl-2,3-dioxopiperazine-1-carboxamido)-2-(3-(phosphonomethyl)phenyl)acetamido)-2-hydroxy-3,4-dihydro-2H-benzo[e][1,2]oxaborinine-8-carboxylic acid]
N. gonorrhoeae MS11
  MIC: 1 to 2 µg/mL (≈ 1.66 to 3.32 µM)
N. gonorrhoeae WHO Z
  MIC: 1 to 2 µg/mL (≈ 1.66 to 3.32 µM)
K. pneumoniae UMM
  MIC: 32 to 64 µg/mL (≈ 53.1 to 106 µM)
N. gonorrhoeae WHO X
  MIC: 4 to 8 µg/mL (≈ 6.64 to 13.3 µM)
N. gonorrhoeae WHO M
  MIC: < 1 µg/mL
K. pneumoniae 848844
  MIC: > 128 µg/mL
N. gonorrhoeae WHO K
  MIC: 4 to 8 µg/mL (≈ 6.64 to 13.3 µM)
E. coli AG100
  MIC: 8 to 16 µg/mL (≈ 13.3 to 26.6 µM)
N. gonorrhoeae FA1090
  MIC: < 1 µg/mL
E. coli D22
  MIC: 2 to 4 µg/mL (≈ 3.32 to 6.64 µM)
E. coli ATCC 25922
  MIC: 32 to 64 µg/mL (≈ 53.1 to 106 µM)
K. pneumoniae SI-117
  MIC: > 128 µg/mL
P. aeruginosa ATCC 27853
  MIC: > 128 µg/mL
A. baumannii ATCC 19606
  MIC: 32 to 64 µg/mL (≈ 53.1 to 106 µM)
[1]
  MIC: 8 to 16 µg/mL (≈ 13.3 to 26.6 µM)
[2]
  EC50: < 10 µM
P. aeruginosa ATCC 35151
  MIC: < 1 µg/mL
E. coli 901C
  MIC: < 1 µg/mL
